Patent US20130029367A1, “COMPOSITIONS AND METHODS FOR MONITORING BREAST CANCER TREATMENT” (Board of Trustees of the University of Arkansas, priority 2003, published 2013)

Tests used:
[1] = tested on: radiation injury to normal breast tissue in BCT patients; test: Phase III pilot study: oral AES-14 vs placebo for radiation injury to the breast in BCT patients; format: in vivo, human; settings: at 2 year follow-up
Method: This theory was tested in two parts. […] A Phase III pilot study in which 17 patients were randomized to oral AES-14 (30 gm GLN/day, approximately 0.5 gm GLN/kg/day) or placebo from one week prior until one week after radiation therapy (5,000 cGy) was performed. Patients were followed weekly for 7 weeks and every 3 months for 2 years for acute and chronic radiation injury using the RTOG scales, skin biopsy at 0 and 7 weeks, GLN and GSH levels, US, mammogram density, lymphedema, quality of life and performance status.
The RTOG acute radiation morbidity scoring criteria for skin ranges from 0 (no change) to 4 (necrosis). A score of 2 (moist desquamation) was considered failure of treatment. Patients receiving oral AES-14 scored an average of 0.9±0.2, SEM compared to 1.4±0.2 in the placebo group. All patients in the placebo group reached a score of 2 or greater during the first 7 weeks. Two of 8 placebo patients required radiation therapy delay. […] Only 4 of 9 patients in the AES-14 group scored a high of 2, none a 3 (p=0.03 AES-14 vs. placebo, Fisher Exact). At 12 months, 4 of 8 patients in the placebo group complained of pain for which 3 required narcotics, 6 of 8 had significant edema, and 4 of 8 marked increased density and firmness of the radiated breast. […]

9.29 kDa protein = test: SELDI-MS of serum proteins in breast cancer patients on radiation therapy and oral glutamine (AES-14); format: in vivo, human
Description: Sixteen breast cancer patients treated with radiation therapy were randomized to receive oral supplemental glutamine (AES-14) or a placebo. Ten of the sixteen women received AES-14 (30 g glutamine per day, approximately 0.5 g glutamine/kg/day) from one week prior to initiating radiation therapy (5,000 cGy) until one week after completing radiation therapy. Six patients received placebo. Serum was collected from each patient before beginning glutamine supplementation (Baseline), at two and four weeks after initiating glutamine supplementation, and one week after stopping glutamine supplementation (Post Treatment in FIG. 1).
Serum proteins from each sample were analyzed by SELDI-MS. Briefly, serum proteins were adhered to the solid substrate of a SELDI chip. The proteins were then desorbed by surface enhanced laser desorption in a SELDI-MS apparatus, and analyzed by mass spectrometry.
SELDI-MS was performed using a Ciphergen (Freemont, Calif.) SELDI PDSII instrument. […] The mass:charge ratio (m/z) of each protein was determined according to a variety of externally calibrated peptide and protein standards. […]
The SELDI-MS procedure analyzed proteins over the m/z ratio ranges of 2-20 and 20-100 kDa.

[2] = tested on: human gastrointestinal epithelial cell line (CaCo); test: Cellular uptake of glutamine in CaCo cells (HPLC detection at 340 nm); format: in vitro ADME
Method: Distilled, deionized water (107 ml) was added to 207 grams of a dry mixture of sucrose, sorbitol, and glutamine with excipients (Aesgen-14) as listed in Table 1.
Both samples were allowed to stand for 1 day at room temperature. The supernatant was decanted from the residue and used for the cellular uptake determination.
On Day 1, cells from a human gastrointestinal epithelial cell line (CaCo) were plated at a density of 0.5×10^6 cells per well in a 6-well tissue culture dish.
At time points 0, 10, 20, 40, and 60 seconds, the test material was aspirated and the cells washed three times (3×) with chilled (4EC) phosphate buffered saline (PBS), followed by the addition of 1.0 ml of perchloric acid. Cells were harvested by scraping, then aspirated by pipet into a 1.7 ml tube.
The harvested cells were sonicated for 10 seconds, and 500:1 of sonicated cells were transferred into a 1.7 ml tube. The perchloric acid was neutralized by the addition of 130:1 of 2M KHCO3, and the resulting mixture was frozen overnight at −80EC.
Upon thawing, the sample was centrifuged for 10 minutes at 14,000 rpm and the supernatants were transferred to new 1.7 ml tubes and frozen at −80EC. The resulting clarified samples were thawed and diluted 1:3 with deionized water. Fifty microliters were withdrawn, added to 10 microliters complete o-phthaldialdehyde (Sigma P-0532), and mixed by agitation. After incubation for two minutes at room temperature, a 20:1 sample was injected on a Hypersil® C18 Elite 5:m HPLC column using 70:30 acetonitrile:water as the mobile phase. Glutamine levels, measured as :g/ml, were detected at 340 nm.

## NC(=O)CC[C@H](N)C(=O)O [L-glutamine]
[1]
  patients with local recurrence: none
9.29 kDa protein; first two weeks of glutamine supplementation and radiation therapy
  increase in amount of the 9.29 kDa protein: approximately 3 fold
9.29 kDa protein; within one week following discontinuation of glutamine
  amount of the 9.29 kDa protein after discontinuation: returned to near the baseline value
[2]; normal cells, incubation time 0 seconds
  mean cellular glutamine uptake: 3.53 :g/ml
[2]; normal cells, incubation time 10 seconds
  mean cellular glutamine uptake: 10.30 :g/ml
[2]; normal cells, incubation time 20 seconds
  mean cellular glutamine uptake: 2.48 :g/ml
[2]; normal cells, incubation time 40 seconds
  mean cellular glutamine uptake: 3.23 :g/ml
[2]; normal cells, incubation time 60 seconds
  mean cellular glutamine uptake: 4.85 :g/ml
[2]; starved cells (L-glutamine deficient medium), incubation time 0 seconds
  mean cellular glutamine uptake: 1.33 :g/ml
[2]; starved cells (L-glutamine deficient medium), incubation time 10 seconds
  mean cellular glutamine uptake: 1.43 :g/ml
[2]; starved cells (L-glutamine deficient medium), incubation time 20 seconds
  mean cellular glutamine uptake: 1.49 :g/ml
[2]; starved cells (L-glutamine deficient medium), incubation time 40 seconds
  mean cellular glutamine uptake: 2.23 :g/ml
[2]; starved cells (L-glutamine deficient medium), incubation time 60 seconds
  mean cellular glutamine uptake: 49.96 :g/ml
